How the values were obtained:
Assay in all cases: combination Emax (second highest fraction inhibited in the dose matrix, 72 h); higher = more inhibition; extreme values may be limits of the assay
[1] = test system: C-33-A (Cervical Carcinoma)
Summary of the method: (§1)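 After 24 hours at 37°C and 5% CO2 in 1536-well plates, cells in DMEM/F12 or RPMI plus 10% FBS received two-drug dose matrices for 72 hours. Viability came from CellTiter-Glo 2.0 luminescence and was scaled as inhibition, anchored at 0 by vehicle wells and at 1 by blank wells. Combination Emax is taken as the second-highest inhibition in the matrix, and Bliss excess as the observed combination effect less EA + EB − EA·EB, with EA and EB the single-agent effects.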

[2] = test system: RCC-JW (Kidney Carcinoma)
Summary of the method: as §1

[3] = test system: CL-11 (Colorectal Carcinoma)
Summary of the method: as §1

[4] = test system: NCI-H596 (Other Solid Carcinomas)
Summary of the method: as §1

ES6 (Ewing's Sarcoma) = test system: ES6 (Ewing's Sarcoma)
Summary of the method: as §1

GAK (Melanoma) = test system: GAK (Melanoma)
Summary of the method: as §1

[5] = test system: IA-LM (Non-Small Cell Lung Carcinoma)
Summary of the method: as §1

NCI-H2373 (Mesothelioma) = test system: NCI-H2373 (Mesothelioma)
Summary of the method: as §1

[6] = test system: SKG-IIIa (Cervical Carcinoma)
Summary of the method: as §1

[7] = test system: P30-OHK (B-Lymphoblastic Leukemia)
Summary of the method: as §1

[8] = test system: SiHa (Cervical Carcinoma)
Summary of the method: as §1

[9] = test system: NCI-H1876 (Small Cell Lung Carcinoma)
Summary of the method: as §1

[10] = test system: LCLC-103H (Non-Small Cell Lung Carcinoma)
Summary of the method: as §1

IST-MEL1 (Melanoma) = test system: IST-MEL1 (Melanoma)
Summary of the method: as §1

[11] = test system: NCI-H1341 (Small Cell Lung Carcinoma)
Summary of the method: as §1

[12] = test system: LS-1034 (Colorectal Carcinoma)
Summary of the method: as §1

[13] = test system: COR-L88 (Small Cell Lung Carcinoma)
Summary of the method: as §1

[14] = test system: SAT (Head and Neck Carcinoma)
Summary of the method: as §1

[15] = test system: SUP-M2 (T-Cell Non-Hodgkin's Lymphoma)
Summary of the method: as §1

AM-38 (Glioblastoma) = test system: AM-38 (Glioblastoma)
Summary of the method: as §1

Structure (SMILES)	combination Emax [1]	combination Emax [2]	combination Emax [3]	combination Emax [4]	combination Emax (ES6 (Ewing's Sarcoma))	combination Emax (GAK (Melanoma))	combination Emax [5]	combination Emax (NCI-H2373 (Mesothelioma))	combination Emax [6]	combination Emax [7]	combination Emax [8]	combination Emax [9]	combination Emax [10]	combination Emax (IST-MEL1 (Melanoma))	combination Emax [11]	combination Emax [12]	combination Emax [13]	combination Emax [14]	combination Emax [15]	combination Emax (AM-38 (Glioblastoma))
COc1cccc2c1C(=O)c1c(O)c3c(c(O)c1C2=O)C[C@@](O)(C(=O)CO)C[C@@H]3O[C@H]1C[C@H](N)[C@H](O)[C@H](C)O1 [Doxorubicin] + Cc1cc2ncnn2cc1Nc1ncc2c(n1)n(C1CCOCC1)c(=O)n2C [AZD7648] (first compound max 1 µM, 7x7, partner max 10 µM)	0.904	0.75	0.602	0.295	0.573	0.803	0.463	0.95	0.512	0.975	0.571	0.978	0.85	0.724	0.905	0.376	0.455	0.616	1	0.826
COc1cc2ncnc(Nc3ccc(F)c(Cl)c3)c2cc1OCCCN1CCOCC1 [Gefitinib] + CC(C)n1c(=O)n(C)c2cnc3cc(F)c(-c4ccc(OCCCN5CCCCC5)nc4)cc3c21 [AZD1390] (first compound max 10 µM, 7x7, partner max 0.3 µM)	0.485	0.226	0.0239	0.269	0.194	0.226	0.202	0.119	0.148	0.173	0.0755	0.178	0.195	0.0683	0.108	0.117	0.21	0.69	0.116	0.123
CS(=O)(=O)CCNCc1ccc(-c2ccc3ncnc(Nc4ccc(OCc5cccc(F)c5)c(Cl)c4)c3c2)o1 [Lapatinib] + C[C@@H](Oc1cc(-c2cnn(C3CCNCC3)c2)cnc1N)c1c(Cl)ccc(F)c1Cl [Crizotinib] (first compound max 10 µM, 7x7, partner max 10 µM)	0.921	0.976	0.928	0.902	0.953	0.75	0.489	0.559	0.733	0.972	0.252	0.934	0.624	0.811	0.898	0.946	0.57	0.981	1	0.91
CC(=O)c1c(C)c2cnc(Nc3ccc(N4CCNCC4)cn3)nc2n(C2CCCC2)c1=O [Palbociclib] + CC1(C)CCC(CN2CCN(c3ccc(C(=O)NS(=O)(=O)c4ccc(NCC5CCOCC5)c([N+](=O)[O-])c4)c(Oc4cnc5[nH]ccc5c4)c3)CC2)=C(c2ccc(Cl)cc2)C1 [Venetoclax] (first compound max 10 µM, 7x7, partner max 1 µM)	0.354	0.215	0.298	0.134	0.232	0.205	0.0755	0.223	0.0106	0.866	0.123	0.224	0.251	0.237	0.259	0.559	0.331	0.353	0.738	0.328
CC(=O)c1c(C)c2cnc(Nc3ccc(N4CCNCC4)cn3)nc2n(C2CCCC2)c1=O [Palbociclib] + Cc1c2c(nn1C)CSCc1cc(n(C)n1)CSc1cc(c3ccccc3c1)OCCCc1c(C(=O)O)n(C)c3c-2c(Cl)ccc13 [AZD5991] (first compound max 10 µM, 7x7, partner max 1 µM)	0.467	0.255	0.309	0.349	0.412	0.369	0.306	0.328	0.146	0.811	0.0939	0.534	0.329	0.258	0.374	0.686	0.307	0.821	1	0.405
CC(=O)c1c(C)c2cnc(Nc3ccc(N4CCNCC4)cn3)nc2n(C2CCCC2)c1=O [Palbociclib] + Cn1cnc2c(F)c(Nc3ccc(Br)cc3Cl)c(C(=O)NOCCO)cc21 [Selumetinib] (first compound max 10 µM, 7x7, partner max 10 µM)	0.457	0.239	0.864	0.306	0.349	0.697	0.281	0.354	0.188	0.408	0.16	0.312	0.248	0.401	0.254	0.817	0.223	0.549	0.88	0.568
COc1cccc(OCCCN)c1-c1cc(Nc2cnc(C#N)cn2)n[nH]1 [Prexasertib] + C=CCn1c(=O)c2cnc(Nc3ccc(N4CCN(C)CC4)cc3)nc2n1-c1cccc(C(C)(C)O)n1 [AZD1775] (first compound max 1 µM, partner max 1 µM)	0.985	0.703	0.834	0.65	0.603	0.783	0.64	0.497	0.527	0.98	0.487	1	0.854	0.812	0.982	0.835	0.853	0.666	1	0.857
COc1cccc(OCCCN)c1-c1cc(Nc2cnc(C#N)cn2)n[nH]1 [Prexasertib] + CCc1c2c(nc3ccc(O)cc13)-c1cc3c(c(=O)n1C2)COC(=O)[C@]3(O)CC [SN-38] (first compound max 1 µM, 7x7, partner max 0.3 µM)	0.992	0.637	0.849	0.735	0.837	0.641	0.867	0.642	0.595	0.995	0.578	1	0.932	0.889	0.987	0.897	0.866	0.618	1	0.891
COc1cccc(OCCCN)c1-c1cc(Nc2cnc(C#N)cn2)n[nH]1 [Prexasertib] + CN(C)CCCOc1ccc(-c2ccc3ncc4c(c3c2)n(C2CCOCC2)c(=O)n4C)cn1 [AZD0156] (first compound max 1 µM, 7x7, partner max 1 µM)	0.842	0.366	0.734	0.414	0.573	0.718	0.42	0.423	0.389	0.987	0.293	0.968	0.718	0.75	0.869	0.724	0.843	0.579	1	0.837
COc1cccc(OCCCN)c1-c1cc(Nc2cnc(C#N)cn2)n[nH]1 [Prexasertib] + C[C@@H]1COCCN1C2=NC(=NC(=C2)C3(CC3)[S@](=N)(=O)C)C4=C5C=CNC5=NC=C4 [AZD6738] (first compound max 1 µM, 7x7, partner max 10 µM)	0.913	0.589	0.764	0.487	0.61	0.753	0.459	0.644	0.453	0.981	0.445	0.981	0.738	0.817	0.912	0.71	0.833	0.552	1	0.847
COc1cccc(OCCCN)c1-c1cc(Nc2cnc(C#N)cn2)n[nH]1 [Prexasertib] + Cc1cc2ncnn2cc1Nc1ncc2c(n1)n(C1CCOCC1)c(=O)n2C [AZD7648] (first compound max 1 µM, 7x7, partner max 10 µM)	0.882	0.501	0.788	0.438	0.625	0.708	0.489	0.531	0.389	0.984	0.386	0.988	0.725	0.772	0.919	0.685	0.823	0.573	1	0.845
COc1cccc(OCCCN)c1-c1cc(Nc2cnc(C#N)cn2)n[nH]1 [Prexasertib] + O=C(c1cc(Cc2n[nH]c(=O)c3ccccc23)ccc1F)N1CCN(C(=O)C2CC2)CC1 [Olaparib] (first compound max 1 µM, 7x7, partner max 10 µM)	0.819	0.319	0.77	0.642	0.58	0.668	0.463	0.378	0.373	0.991	0.404	0.981	0.78	0.706	0.884	0.685	0.609	0.595	1	0.847
COc1cc2c(cc1OCCCCCOc1cc3c(cc1OC)C(=O)N1C=C(C)C[C@H]1C=N3)N=C[C@@H]1CC(C)=CN1C2=O [SG3199] + O=C(c1cc(Cc2n[nH]c(=O)c3ccccc23)ccc1F)N1CCN(C(=O)C2CC2)CC1 [Olaparib] (first compound max 0.001 µM, 7x7, partner max 10 µM)	0.189	0.0774	0.111	0.202	0.144	0.106	0.139	0.242	0.144	0.31	0.0997	0.7	0.0713	0.181	0.193	0.0272	0.237	0.17	0.839	0.306

From the supplement of paper PMC11061612
